Data reported in patent US9499550B2 (BRISTOL-MYERS SQUIBB COMPANY, priority 2012, dated 2016).
pEC50: −log10 of the molar value.

Columns and labels:
[1] = test system: HCV genotype 1a (H77 strain) replicon in HUH-7 cells; experiment: HCV replicon luciferase reporter assay, genotype 1a; assay type: cell-based; conditions: Hepatitis C virus, Huh-7, 72 h, HCV genotype 1a replicon luciferase, 3 days incubation, read-out: LE_1a (EC50, range)
Outline: (§1)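 Replicon inhibition for both genotypes was measured as Renilla luciferase signal (EnduRen, 7.5 μM final, 2 h) after 3-day, 37° C exposure of replicon-bearing HUH-7 cells in 4% FCS DMEM, 0.5% DMSO. The 1b construct carries S1179I; the 1a H77 construct carries P1496L and S2204I. Twenty-point, 3-fold dilutions were fitted four-parametrically for EC50, and CC50 was taken from multiplexed Cell Titer-Blue.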

[2] = test system: HCV genotype 1b (Con1) replicon in HUH-7 cells; experiment: HCV replicon luciferase reporter assay, genotype 1b; assay type: cell-based; conditions: Hepatitis C virus, Huh-7, 72 h, HCV genotype 1b replicon luciferase, 3 days incubation, read-out: LE_1b (EC50, range)
Outline: as §1

With C[C@@H]1CC/C=C\[C@@H]2C[C@@]2(C(=O)NS(=O)(=O)C2(CF)CC2)NC(=O)[C@@H]2C[C@@H](Oc3ncc(N4CCOCC4)c4ccccc34)CN2C(=O)[C@@H](NC(=O)OC(C)(C)C)[C@H](C)C1 [Compound 5443, tert-butyl ((2R,6S,7R,9R,13aS,14aR,16aS,Z)-14a-(((1-(fluoromethyl)cyclopropyl)sulfonyl)carbamoyl)-7,9-dimethyl-2-((4-morpholinoisoquinolin-1-yl)oxy)-5,16-dioxo-1,2,3,5,6,7,8,9,10,11,13a,14,14a,15,16,16a-hexadecahydrocyclopropa[e]pyrrolo[1,2-a][1,4]diazacyclopentadecin-6-yl)carbamate] the pEC50 [1] was 8.30 to 9.00 and the pEC50 [2] was 9.00 to 9.29.

In the case of CC[C@@H]1C[C@H](C)CC/C=C\[C@@H]2C[C@@]2(C(=O)NS(=O)(=O)C2(CF)CC2)NC(=O)[C@@H]2C[C@@H](Oc3ncc(N4CCOCC4)c4ccccc34)CN2C(=O)[C@H]1NC(=O)OC(C)(C)C(F)(F)F [Compound 5445, 1,1,1-trifluoro-2-methylpropan-2-yl((2R,6S,7R,9R,13aS,14aR,16aS,Z)-7-ethyl-14a-(((1-(fluoromethyl)cyclopropyl)sulfonyl)carbamoyl)-9-methyl-2-((4-morpholinoisoquinolin-1-yl)oxy)-5,16-dioxo-1,2,3,5,6,7,8,9,10,11,13a,14,14a,15,16,16a-hexadecahydrocyclopropa[e]pyrrolo[1,2-a][1,4]diazacyclopentadecin-6-yl)carbamate], the pEC50 [1] was 8.30 to 9.00 and the pEC50 [2] was 8.30 to 9.00.

Work on CC[C@@H]1C[C@H](C)CC/C=C\[C@@H]2C[C@@]2(C(=O)NS(=O)(=O)C2(CF)CC2)NC(=O)[C@@H]2C[C@@H](Oc3ncc(N4CCOCC4)c4ccccc34)CN2C(=O)[C@H]1NC(=O)OC(C)(C)C(C)(F)F [Compound 5447, 3,3-difluoro-2-methylbutan-2-yl((2R,6S,7R,9R,13aS,14aR,16aS,Z)-7-ethyl-14a-(((1-(fluoromethyl)cyclopropyl)sulfonyl)carbamoyl)-9-methyl-2-((4-morpholinoisoquinolin-1-yl)oxy)-5,16-dioxo-1,2,3,5,6,7,8,9,10,11,13a,14,14a,15,16,16a-hexadecahydrocyclopropa[e]pyrrolo[1,2-a][1,4]diazacyclopentadecin-6-yl)carbamate] yielded a pEC50 [1] of 8.30 to 9.00 and a pEC50 [2] of 8.30 to 9.00.

C[C@@H]1CC/C=C\[C@@H]2C[C@@]2(C(=O)NS(=O)(=O)C2(CF)CC2)NC(=O)[C@@H]2C[C@@H](Oc3ncc(N4CCOCC4)c4ccccc34)CN2C(=O)[C@@H](NC(=O)OC(C)(C)C(F)(F)F)[C@H](C)C1 [Compound 5449, 1,1,1-trifluoro-2-methylpropan-2-yl((2R,6S,7R,9R,13aS,14aR,16aS,Z)-14a-(((1-(fluoromethyl)cyclopropyl)sulfonyl)carbamoyl)-7,9-dimethyl-2-((4-morpholinoisoquinolin-1-yl)oxy)-5,16-dioxo-1,2,3,5,6,7,8,9,10,11,13a,14,14a,15,16,16a-hexadecahydrocyclopropa[e]pyrrolo[1,2-a][1,4]diazacyclopentadecin-6-yl)carbamate] was tested, and the pEC50 [1] was 8.30 to 9.00 and the pEC50 [2] was 9.00 to 9.29.

In the case of C[C@@H]1CC/C=C\[C@@H]2C[C@@]2(C(=O)NS(=O)(=O)C2(CF)CC2)NC(=O)[C@@H]2C[C@@H](Oc3ncc(N4CCOCC4)c4ccccc34)CN2C(=O)[C@@H](NC(=O)OC(C)(C)C(C)(F)F)[C@H](C)C1 [Compound 5451, 3,3-difluoro-2-methylbutan-2-yl((2R,6S,7R,9R,13aS,14aR,16aS,Z)-14a-(((1-(fluoromethyl)cyclopropyl)sulfonyl)carbamoyl)-7,9-dimethyl-2-((4-morpholinoisoquinolin-1-yl)oxy)-5,16-dioxo-1,2,3,5,6,7,8,9,10,11,13a,14,14a,15,16,16a-hexadecahydrocyclopropa[e]pyrrolo[1,2-a][1,4]diazacyclopentadecin-6-yl)carbamate], the pEC50 [1] was 8.30 to 9.00 and the pEC50 [2] was 8.30 to 9.00.

Compound [2H]C([2H])([2H])C(OC(=O)N[C@@H]1C(=O)N2C[C@H](Oc3ncc(OC)c4ccc(F)cc34)C[C@H]2C(=O)N[C@]2(C(=O)NS(=O)(=O)C3(C)CC3)C[C@H]2/C=C\CC[C@@H](C)C[C@H]1CC)(C([2H])([2H])[2H])C(F)(F)F [Compound 5453] has a pEC50 [1] of 8.30 to 9.00 and a pEC50 [2] of 9.00 to 9.29.

CC[C@@H]1C[C@H](C)CC/C=C\[C@@H]2C[C@@]2(C(=O)NS(=O)(=O)C2(C)CC2)NC(=O)[C@@H]2C[C@@H](Oc3ncc(OC)c4ccc(F)cc34)CN2C(=O)[C@H]1NC(=O)OC(C)(C)C(C)(F)F [Compound 5455, 3,3-difluoro-2-methylbutan-2-yl((2R,6S,7R,9R,13aS,14aR,16aS,Z)-7-ethyl-2-((7-fluoro-4-methoxyisoquinolin-1-yl)oxy)-9-methyl-14a-(((1-methylcyclopropyl)sulfonyl)carbamoyl)-5,16-dioxo-1,2,3,5,6,7,8,9,10,11,13a,14,14a,15,16,16a-hexadecahydrocyclopropa[e]pyrrolo[1,2-a][1,4]diazacyclopentadecin-6-yl)carbamate] was tested, and the pEC50 [1] was 8.30 to 9.00 and the pEC50 [2] was 9.30 to 10.00.

CC[C@@H]1C[C@H](C)CC/C=C\[C@@H]2C[C@@]2(C(=O)NS(=O)(=O)C2(C)CC2)NC(=O)[C@@H]2C[C@@H](Oc3ncc(N4CCOCC4)c4ccccc34)CN2C(=O)[C@H]1NC(=O)OC(C)(C)C(C)(F)F [Compound 5457, 3,3-difluoro-2-methylbutan-2-yl((2R,6S,7R,9R,13aS,14aR,16aS,Z)-7-ethyl-9-methyl-14a-(((1-methylcyclopropyl)sulfonyl)carbamoyl)-2-((4-morpholinoisoquinolin-1-yl)oxy)-5,16-dioxo-1,2,3,5,6,7,8,9,10,11,13a,14,14a,15,16,16a-hexadecahydrocyclopropa[e]pyrrolo[1,2-a][1,4]diazacyclopentadecin-6-yl)carbamate] gave a pEC50 [1] of 8.30 to 9.00 and a pEC50 [2] of 9.00 to 9.29.

Work on C[C@@H]1CC/C=C\[C@@H]2C[C@@]2(C(=O)NS(=O)(=O)C2(C)CC2)NC(=O)[C@@H]2C[C@@H](Oc3ncc(N4CCOCC4)c4ccccc34)CN2C(=O)[C@@H](NC(=O)OC(C)(C)C(C)(F)F)[C@H](C)C1 [Compound 5459, 3,3-difluoro-2-methylbutan-2-yl((2R,6S,7R,9R,13aS,14aR,16aS,Z)-7,9-dimethyl-14a-(((1-methylcyclopropyl)sulfonyl)carbamoyl)-2-((4-morpholinoisoquinolin-1-yl)oxy)-5,16-dioxo-1,2,3,5,6,7,8,9,10,11,13a,14,14a,15,16,16a-hexadecahydrocyclopropa[e]pyrrolo[1,2-a][1,4]diazacyclopentadecin-6-yl)carbamate] yielded a pEC50 [1] of 8.30 to 9.00 and a pEC50 [2] of 8.30 to 9.00.

Work on CC[C@@H]1C[C@H](C)CC/C=C\[C@@H]2C[C@@]2(C(=O)NS(=O)(=O)C2(CF)CC2)NC(=O)[C@@H]2C[C@@H](Oc3nccc4c5c(ccc34)OCCO5)CN2C(=O)[C@H]1NC(=O)OC(C)(C)C(C)(F)F [Compound 5461, 3,3-difluoro-2-methylbutan-2-yl((2R,6S,7R,9R,13aS,14aR,16aS,Z)-2-((2,3-dihydro-[1,4]dioxino[2,3-f]isoquinolin-7-yl)oxy)-7-ethyl-14a-(((1-(fluoromethyl)cyclopropyl)sulfonyl)carbamoyl)-9-methyl-5,16-dioxo-1,2,3,5,6,7,8,9,10,11,13a,14,14a,15,16,16a-hexadecahydrocyclopropa[e]pyrrolo[1,2-a][1,4]diazacyclopentadecin-6-yl)carbamate] yielded a pEC50 [1] of 8.30 to 9.00 and a pEC50 [2] of 8.30 to 9.00.

CC[C@@H]1C[C@H](C)CC/C=C\[C@@H]2C[C@@]2(C(=O)NS(=O)(=O)C2(CF)CC2)NC(=O)[C@@H]2C[C@@H](Oc3nccc4c5c(ccc34)N(C)CCO5)CN2C(=O)[C@H]1NC(=O)OC(C)(C)C(C)(F)F [Compound 5463, 3,3-difluoro-2-methylbutan-2-yl((2R,6S,7R,9R,13aS,14aR,16aS,Z)-7-ethyl-14a-(((1-(fluoromethyl)cyclopropyl)sulfonyl)carbamoyl)-9-methyl-2-((4-methyl-3,4-dihydro-2H-[1,4]oxazino[2,3-f]isoquinolin-7-yl)oxy)-5,16-dioxo-1,2,3,5,6,7,8,9,10,11,13a,14,14a,15,16,16a-hexadecahydrocyclopropa[e]pyrrolo[1,2-a][1,4]diazacyclopentadecin-6-yl)carbamate] was tested, and the pEC50 [1] was 7.46 to 8.30 and the pEC50 [2] was 7.46 to 8.30.

In the case of CC[C@@H]1C[C@H](C)CC/C=C\[C@@H]2C[C@@]2(C(=O)NS(=O)(=O)C2(CF)CC2)NC(=O)[C@@H]2C[C@@H](Oc3nccc4c5c(ccc34)N(C)CCO5)CN2C(=O)[C@H]1NC(=O)OC(C)(C)C(F)(F)F [Compound 5465, 1,1,1-trifluoro-2-methylpropan-2-yl((2R,6S,7R,9R,13aS,14aR,16aS,Z)-7-ethyl-14a-(((1-(fluoromethyl)cyclopropyl)sulfonyl)carbamoyl)-9-methyl-2-((4-methyl-3,4-dihydro-2H-[1,4]oxazino[2,3-f]isoquinolin-7-yl)oxy)-5,16-dioxo-1,2,3,5,6,7,8,9,10,11,13a,14,14a,15,16,16a-hexadecahydrocyclopropa[e]pyrrolo[1,2-a][1,4]diazacyclopentadecin-6-yl)carbamate], the pEC50 [1] was 8.30 to 9.00 and the pEC50 [2] was 8.30 to 9.00.

Compound [2H]C([2H])([2H])C(OC(=O)N[C@@H]1C(=O)N2C[C@H](Oc3ncc(OC)c4ccc(F)cc34)C[C@H]2C(=O)N[C@]2(C(=O)NS(=O)(=O)C3CC3)C[C@H]2/C=C\CC[C@@H](C)C[C@H]1CC)(C([2H])([2H])[2H])C(F)(F)F [Compound 5467] has a pEC50 [1] of 8.30 to 9.00 and a pEC50 [2] of 9.30 to 10.00.
